Data taken from patent publication US4837238A, “Pharmacologically useful pyrazolopyridines” (Beecham Group p.l.c., priority 1985, dated 1989).

Experiments:
Format in all cases: in vivo
[1] = tested on: cantharidin mouse ear; experiment: Mouse cantharidin screen (topical anti-inflammatory activity, mouse ear); conditions: 500 μg/ear, 25 μg cantharidin, 24 h, ***P < 0.001
Method: Compounds were tested for topical anti-inflammatory activity in a cantharidin mouse ear screen, modified from Swingle, K. F., Reiter, M. J. and Schwartzmiller, D. H., Arch. Int. Pharmacodyn., (1981), 254, 168-176).
(a) 25 μg cantharidin (in 10 μl THF/MeOH) was applied to both ears. Compound, in the same solvent, was applied at the same time, to the left ear only. Ears were weighed 24 h after cantharidin application. Percentage inhibition of the acute inflammatory swelling refers to the increase in weight of left ears (cantharidine plus compound) compared with solvent-treated negative controls, as a proportion of the increase in weight of right ears (cantharidin alone) over similar controls.

[2] = tested on: Carrageenin-induced pleurisy in the rat; experiment: Carrageenin-induced pleurisy in the rat (monocyte accumulation); conditions: 25 mg/kg p.o., 1 hour before and 24 and 48 hours after carrageenin, 72 hours; compared to control (p<0.05)
Method: This model of monocyte accumulation is based on the method of R. Vinegar, J. F. Truax, J. L. Selph and F. A. Voelker [Federation Proceedings 41, 2588-2595, 1982].
0.2 ml of a 2.0% solution of λ-carrageenin (Viscarin 402) in saline was injected intrapleurally in anaesthetised rats (wt. approx. 175-200 g). Compounds were administered 1 hour before carrageenin and at 24 and 48 hours after carrageenin. 72 hours after carrageenin injection, 4.0 ml of EDTA solution (5 g EDTA in 100 ml of 0.9% saline and 325 mg phenol red added together with saline to 1 liter) was injected intrapleurally after killing the animals, and the exudate was removed with a syringe through the diaphragm. Exudate volume was calculated from the dilution of the phenol red injected, determined spectrophotometrically (560 nm) and cellular content estimated with a DNA assay [Karsten U. and Wollenberger A. Anal. Biochem. 77, 464-470, 1977].

[3] = tested on: mouse sensitized to oxazolone; experiment: Mouse oxazolone screen (topical anti-inflammatory activity, sensitized mouse ear); conditions: 200 μg/ear, 1 hour before 100 μg oxazolone challenge, 24 hours, **p < 0.01, ***p < 0.001
Method: Compounds were tested for topical anti-inflammatory activity in a screen using the mouse sensitized to oxazolone, by a method modified from that of Dietrich and Hess [Int. Arch. Allergy, 38, 246 (1970)].
Mice were sensitized with oxazolone (2 mg in 20 μl EtOH) on a shaved area of the abdomen. 5 days later, the animals received 10 μl THF/MeOH (1:1 v/v) on the right ear and the test compound in the same solvent on the left ear. 1 hour later, the animals were challenged with 100 μg oxazolone in 10 μl acetone on each ear. Ear weights were measured 24 hours later. Percentage inhibition of the inflammatory swelling refers to the increase in weight of left ears (oxazolone plus compound in THF/MeOH) compared to untreated negative controls, as a proportion of the increase in weight of right ears (oxazolone only in THF/MeOH) over similar controls.

Structure (SMILES) | % INHIBITION (acute inflammatory swelling, ear weight) [1] | inhibition of DNA content (exudate cellular content) [2] | inhibition of exudate volume [2] | % INHIBITION (inflammatory swelling, ear weight) [3]
CCCCNc1c(C)cnc2cn[nH]c12 [Example 1, 7n-Butylamino-6-methyl-1H-pyrazolo[4,3-b]pyridine] | 95% |  |  | 
OCCNc1c2c(nc3cn[nH]c13)CCCC2 [Example 5, 9-(2-Hydroxyethylamino)-5,6,7,8-tetrahydro-1H-pyrazolo-[4,3-b]quinoline] | 91% | 31% | 36% | 
CC(C)CNc1c2c(nc3cn[nH]c13)CCCC2 [Example 6, 9-Isobutylamino-5,6,7,8-tetrahydro-1H-pyrazolo[4,3-b]quinoline] | 97% |  |  | 66%
CC(C)CNc1c2c(nc3cn[nH]c13)CCC2 [Example 8, 8-Isobutylamino-5,6,7-trihydro-1H-cyclopenta[b]pyrazolo[3,4-e]pyridine] | 97% |  |  | 49%
CCCNc1c(CN)cnc2cn[nH]c12 [Example 9, 6-Aminomethyl-7-propylamino-1H-pyrazolo[4,3-b]pyridine] | 91% |  |  | 
